Activity calls are given as the source filed them.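 How the source made its calls: active means mean EC50 below 100 µM; inactive means the rest.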
Molecular target: placental alkaline phosphatase (human)
Test: effect of analogs on PLAP activity, SAR follow-up, selectivity assay for mouse IAP activator project, biochemical, human PLAP, set 2 (AID 588607)
Conditions: purified PLAP, CDP-Star luminescence, 30 min

Row | SMILES | EC50 | IC50 (inhibition of PLAP activity)
1 | CN(C)S(=O)(=O)c1cccc(NC(=S)NCCCN2CCCC2=O)c1 | > 100 µM (inactive) | 
2 | CCOc1cc(CCNC(=S)Nc2ccc(S(=O)(=O)N(C)C)cc2)ccc1OC |  | 89.9 µM
3 | CN(C)S(=O)(=O)c1ccc(NC(=S)NCCc2cccc(O)c2)cc1 | > 100 µM (inactive) | 
4 | Cc1ccc(CNC(=S)Nc2cccc(S(=O)(=O)N(C)C)c2)cc1 |  | 82.8 µM
5 | O=C(NC(=S)Nc1cc(S(=O)(=O)N2CCOCC2)ccc1N1CCOCC1)c1ccco1 | > 100 µM (inactive) | 
6 | O=S(=O)(c1ccc(NC(=S)NCc2cccc(F)c2)cc1)N1CCCCC1 |  | 78.1 µM
7 | Cc1ccc(S(=O)(=O)N(C)C)cc1NC(=S)NC(=O)C12CC3CC(CC(C3)C1)C2 | > 100 µM (inactive) | 
8 | Cc1ccc(S(=O)(=O)N(C)C)cc1NC(=S)NC(C)CCC(C)C (stereo unspecified) |  | 78.5 µM
9 | O=C(NC(=S)Nc1cc(S(=O)(=O)N2CCOCC2)ccc1O)c1ccco1 |  | 43.6 µM
10 | O=S(=O)(c1ccc(NC(=S)NCc2cccc(Cl)c2)cc1)N1CCCCC1 |  | 84.9 µM
11 | CCN(CC)CCCNC(=S)Nc1cccc(S(=O)(=O)N(C)C)c1 | > 100 µM (inactive) | 
12 | CN(C)CC(C)(C)CNC(=S)Nc1cccc(S(=O)(=O)N(C)C)c1 | > 100 µM (inactive) | 
13 | CC(CNC(=S)Nc1cccc(S(=O)(=O)N(C)C)c1)N1CCN(c2ccccc2)CC1 (stereo unspecified) | > 100 µM (inactive) | 
14 | CCN(CC)c1ccc(C(=O)NC(=S)Nc2cc(S(=O)(=O)N3CCOCC3)ccc2-n2cncn2)cc1 | > 100 µM (inactive) | 
15 | CN(C)S(=O)(=O)c1cccc(NC(=S)NCCN2CCCC2)c1 | > 100 µM (inactive) | 
16 | CN(C)S(=O)(=O)c1cccc(NC(=S)NCCC(=O)N2CCCC2)c1 | > 100 µM (inactive) | 
17 | CN(C)S(=O)(=O)c1cccc(NC(=S)NCCc2cccc(O)c2)c1 | > 100 µM (inactive) | 
18 | CN(CCc1ccccc1)C(=S)Nc1cccc(S(=O)(=O)N(C)C)c1 | > 100 µM (inactive) | 
19 | COc1cccc(CNC(=S)Nc2ccc(S(=O)(=O)N(C)C)cc2)c1 |  | 91 µM
20 | CN(C)S(=O)(=O)c1cccc(NC(=S)NCCc2ccc(F)cc2)c1 | > 100 µM (inactive) | 
21 | Cc1ccc(S(=O)(=O)N(C)C)cc1NC(=S)NCCCn1ccnc1 | > 100 µM (inactive) | 
22 | COc1cccc(CCNC(=S)Nc2cccc(S(=O)(=O)N(C)C)c2)c1 |  | 78.6 µM

Row | SMILES | EC50 | IC50 (inhibition of PLAP activity)
23 | CC(CCc1ccccc1)NC(=S)Nc1cccc(S(=O)(=O)N(C)C)c1 (stereo unspecified) |  | 69.2 µM
24 | COc1ccc(CCNC(=S)Nc2ccc(S(=O)(=O)N3CCCCC3)cc2)cc1 |  | 70.8 µM
25 | CN(C)S(=O)(=O)c1cccc(NC(=S)NC(C)(C)CC(C)(C)C)c1 |  | 85.7 µM
26 | O=C(CCc1ccccc1)NC(=S)Nc1cccc(S(=O)(=O)N2CCCC2)c1 | > 100 µM (inactive) | 
27 | CN(C)CCCNC(=S)Nc1cccc(S(=O)(=O)N(C)C)c1 | > 100 µM (inactive) | 
28 | CN(C)S(=O)(=O)c1cccc(NC(=S)NCc2ccc(Cl)cc2)c1 | > 100 µM (inactive) | 
29 | CN(C)S(=O)(=O)c1cccc(NC(=S)NCCc2ccccc2)c1 |  | 86.6 µM
30 | CCCCCCC(C)NC(=S)Nc1cc(S(=O)(=O)N(C)C)ccc1C (stereo unspecified) | > 100 µM (inactive) | 
31 | COc1ccc(CCNC(=S)Nc2ccc(S(=O)(=O)N3CCCCC3)cc2)cc1OC |  | 81.9 µM
32 | COc1ccc(CNC(=S)Nc2ccc(S(=O)(=O)N3CCCCC3)cc2)cc1OC |  | 68.6 µM
33 | CN(C)S(=O)(=O)c1ccc(NC(=S)NCCc2cccc(Br)c2)cc1 |  | 57 µM
34 | Cc1ccc(C)c(NC(=S)Nc2ccc(S(=O)(=O)N3CCCCC3)cc2)c1 | > 100 µM (inactive) | 
35 | CN(C)S(=O)(=O)c1ccc(NC(=S)NCCN2CCCC2)cc1 | > 100 µM (inactive) | 
36 | CC1CC(NC(=S)Nc2cccc(S(=O)(=O)N(C)C)c2)CC(C)N1 (stereo unspecified) | > 100 µM (inactive) | 
37 | CN(CCc1ccccn1)C(=S)Nc1cccc(S(=O)(=O)N(C)C)c1 | > 100 µM (inactive) | 
38 | Cc1ccc(S(=O)(=O)N(C)C)cc1NC(=S)NC(C)CCCC(C)C (stereo unspecified) |  | 66.1 µM
39 | CN(C)S(=O)(=O)c1cccc(NC(=S)NCCc2cccc(Br)c2)c1 |  | 73 µM
40 | CN(C)S(=O)(=O)c1cccc(NC(=S)NCCc2cccc(F)c2)c1 | > 100 µM (inactive) | 
41 | Cc1ccc(S(=O)(=O)N(C)C)cc1NC(=S)NC1CCN(Cc2ccccc2)CC1 | > 100 µM (inactive) | 
42 | CN(C)S(=O)(=O)c1cccc(NC(=S)NCCCn2ccnc2)c1 | > 100 µM (inactive) | 
43 | CN(C)S(=O)(=O)c1cccc(NC(=S)NCCc2ccc(Br)cc2)c1 |  | 92 µM
44 | O=c1c2ccccc2[nH]c(=S)n1-c1cccc(S(=O)(=O)N2CCCC2)c1 | > 100 µM (inactive) | 

Now from value to compound:

Row | EC50 | IC50 (inhibition of PLAP activity) | SMILES
45 |  | 30.1 µM | CCN(CC)S(=O)(=O)c1ccc(NC(=S)NCC(c2ccccc2)c2ccccc2)cc1
46 | > 100 µM (inactive) |  | CN(C)S(=O)(=O)c1ccc(NC(=S)NCc2ccc(Cl)cc2)cc1
47 |  | 71.8 µM | Cc1ccccc1CNC(=S)Nc1ccc(S(=O)(=O)N(C)C)cc1
48 |  | 38.6 µM | O=S(=O)(c1ccc(NC(=S)NCCC(c2ccccc2)c2ccccc2)cc1)N1CCCCC1
49 |  | 29 µM | CN(C)S(=O)(=O)c1ccc(NC(=S)NC(c2ccccc2)c2ccccc2)cc1
50 |  | 69.6 µM | COc1ccccc1CNC(=S)Nc1ccc(S(=O)(=O)N(C)C)cc1
51 |  | 52.5 µM | CCN(CC)S(=O)(=O)c1ccc(NC(=S)NCCC(c2ccccc2)c2ccccc2)cc1
52 | > 100 µM (inactive) |  | CN(C)S(=O)(=O)c1ccc(NC(=S)NCCc2ccccc2)cc1
53 |  | 26.3 µM | CCN(CC)S(=O)(=O)c1ccc(NC(=S)NC(c2ccccc2)c2ccccc2)cc1
54 |  | 31.2 µM | CN(C)S(=O)(=O)c1cccc(NC(=S)NC(c2ccccc2)c2ccccc2)c1
55 |  | 47.2 µM | CC1CCN(S(=O)(=O)c2ccc(NC(=S)NC(c3ccccc3)c3ccccc3)cc2)CC1
56 |  | 35.9 µM | CN(C)S(=O)(=O)c1cccc(NC(=S)NCC(c2ccccc2)c2ccccc2)c1
57 |  | 42 µM | O=S(=O)(c1ccc(NC(=S)NCCC(c2ccccc2)c2ccccc2)cc1)N1CCCC1
58 |  | 19.5 µM | O=S(=O)(c1ccc(NC(=S)NCC(c2ccccc2)c2ccccc2)cc1)N1CCCC1
59 |  | 35 µM | CN(C)S(=O)(=O)c1ccc(NC(=S)NCCC(c2ccccc2)c2ccccc2)cc1
60 |  | 40.8 µM | CN(C)S(=O)(=O)c1ccc(NC(=S)NCC(c2ccccc2)c2ccccc2)cc1
61 |  | 22.1 µM | O=S(=O)(c1ccc(NC(=S)NC(c2ccccc2)c2ccccc2)cc1)N1CCCC1
62 |  | 29.6 µM | O=S(=O)(c1ccc(NC(=S)NCC(c2ccccc2)c2ccccc2)cc1)N1CCCCC1
63 |  | 78.6 µM | Cc1ccc(CNC(=S)Nc2ccc(S(=O)(=O)N(C)C)cc2)cc1
64 |  | 31.9 µM | CC1CCN(S(=O)(=O)c2ccc(NC(=S)NCCC(c3ccccc3)c3ccccc3)cc2)CC1
65 |  | 16.6 µM | O=S(=O)(c1ccc(NC(=S)NC(c2ccccc2)c2ccccc2)cc1)N1CCCCC1
66 |  | 93 µM | CN(C)S(=O)(=O)c1cccc(NC(=S)NCCC(c2ccccc2)c2ccccc2)c1
